From ChEMBL document CHEMBL2375321, “Discovery of 3,3'-diindolylmethanes as potent antileishmanial agents” (Eur J Med Chem, 2013)
Values after ≈ are worked out from the molar mass of the structure shown. Active and inactive are the calls of the source. Unless noted, the calls are words filed in the database; no cut-off is given here.

Columns and labels:
[1] = test system: Bacillus subtilis; assay: Antibacterial activity against Bacillus subtilis by CLSI method; assay type: functional
[2] = test system: Staphylococcus aureus; assay: Antibacterial activity against methicillin-resistant Staphylococcus aureus ATCC 33591 by CLSI method; assay type: functional, organism-based
[3] = test system: Staphylococcus aureus; assay: Antibacterial activity against Staphylococcus aureus ATCC 29213 by CLSI method; assay type: functional, organism-based
[4] = test system: Mycobacterium intracellulare; assay: Antibacterial activity against Mycobacterium intracellulare ATCC 23068 by alamar blue assay; assay type: functional, organism-based
[5] = test system: Vero; assay: Cytotoxicity against african green monkey Vero cells up to 4.6 ug/ml after 48 hrs by neutral red assay; assay type: cell-based; conditions: chlorocebus sabaeus
[6] = test system: Plasmodium falciparum; assay: Antimalarial activity against chloroquine-sensitive Plasmodium falciparum D6 assessed as plasmodial LDH activity after 72 hrs; assay type: functional, organism-based; conditions: D6, 72 h
[7] = test system: Leishmania donovani; assay: Antileishmanial activity against axenic amastigote of Leishmania donovani after 72 hrs by alamar blue assay; assay type: functional, organism-based
[8] = test system: Leishmania donovani; assay: Antileishmanial activity against promastigote of Leishmania donovani after 72 hrs by alamar blue assay; assay type: functional, organism-based; conditions: Leishmania donovani, 72 h; for IC50: read-out: IC50
[9] = test system: Cryptococcus neoformans; assay: Antifungal activity against Cryptococcus neoformans ATCC 90113 by CLSI method; assay type: functional, organism-based
[10] = test system: Candida albicans; assay: Antifungal activity against Candida albicans ATCC 90028 by CLSI method; assay type: functional, organism-based
[11] = test system: Aspergillus fumigatus; assay: Antifungal activity against Aspergillus fumigatus ATCC 204305 by CLSI method; assay type: functional, organism-based
[12] = Staphylococcus aureus, ATCC 33591
[13] = Leishmania donovani, 72 h, read-out: IC50
[14] = Staphylococcus aureus, ATCC 33591, read-out: IC50

| Compound | MIC [2, 12] [µM] | MIC [3] | IC50 [4] | MBC [4] | MIC [4] | IC50 [2] | MBC [2] | IC50 [3] [nM] | MBC [3] | Activity [5] | IC90 ([7]; Leishmania donovani, 72 h) [µM] | IC50 [7, 13] [µM] | IC90 [8] [µM] | IC50 [8] [µM] | IC50 [9] [µM] | MFC [9] | MIC [9] | Activity [10] | Activity [11] | IC50 [2, 14] [nM] | also measured |
| --- | --- | --- | --- | --- | --- | --- | --- | --- | --- | --- | --- | --- | --- | --- | --- | --- | --- | --- | --- | --- | --- |
| O=C1N[C@@H](c2c[nH]c3cc(Br)ccc23)CN=C1c1c[nH]c2cc(Br)ccc12 [HAMACANTHIN A] | 6.45 (≈ 3.14 µg/mL) | 6.45 µM (≈ 3.14 µg/mL) | – | – | – | – | – | – | – | – | – | – | – | – | – | – | – | – | – | – | MIC [1]: 3.22 µM (≈ 1.57 µg/mL) |
| Clc1cccc(Cl)c1C(c1c[nH]c2ccccc12)c1c[nH]c2ccccc12 | – | 6.41 µM (≈ 2.51 µg/mL) | Not Active | inactive | inactive | Not Active | inactive | 2360 | 51.3 µM (≈ 20.1 µg/mL) | Non-toxic | 81.5 | 48.4 | 90.8 | 80.7 | – | – | – | – | – | – | MIC [2]: inactive; IC50 [6]: 12.1 µM |
| COc1ccc(C(c2c[nH]c3ccccc23)c2c[nH]c3ccccc23)cc1 | – | inactive | Not Active | inactive | inactive | Not Active | inactive | 9060 | inactive | Non-toxic | – | – | 106 | 89 | 35.5 | inactive | inactive | inactive | inactive | – | MIC [2]: inactive; IC50 [7]: Not Active; IC90 [7]: inactive |
| Fc1ccc(C(c2c[nH]c3ccccc23)c2c[nH]c3ccccc23)cc1Br | 23.9 (≈ 10 µg/mL) | 5.98 µM (≈ 2.51 µg/mL) | Not Active | inactive | inactive | – | inactive | 3760 | inactive | Non-toxic | 74.5 | 47.5 | 22.9 | 17.6 | 1.94 | 5.98 µM (≈ 2.51 µg/mL) | 2.99 µM (≈ 1.25 µg/mL) | inactive | inactive | 9230 | – |
| COc1cc(C(c2c[nH]c3ccc(I)cc23)c2c[nH]c3ccc(I)cc23)ccc1O | 4.03 (≈ 2.5 µg/mL) | 4.03 µM (≈ 2.5 µg/mL) | Not Active | inactive | inactive | – | inactive | 1890 | inactive | Non-toxic | 47.2 | 31.6 | 37.9 | 20.8 | 3.92 | inactive | 32.3 µM (≈ 20 µg/mL) | inactive | inactive | 2110 | – |
| Fc1cc(F)cc(C(c2c[nH]c3ccccc23)c2c[nH]c3ccccc23)c1 | 6.98 (≈ 2.5 µg/mL) | 3.49 µM (≈ 1.25 µg/mL) | Not Active | inactive | inactive | – | inactive | 2320 | inactive | Non-toxic | 95.6 | 67.4 | 19.8 | 8.35 | 2.32 | 3.49 µM (≈ 1.25 µg/mL) | 3.49 µM (≈ 1.25 µg/mL) | inactive | inactive | 2930 | – |
